The target of this assay is T1, MTG (recombinant microbial transglutaminase, TGase) (Streptomyces sp., UniProt A0A6H0XHW2).
T1 construct: pro-mature gene (1,149 bp) without native signal peptide, codon-optimized, behind B. subtilis YncM signal peptide; secreted by Bacillus subtilis SCK6; purified mature enzyme, 38 kDa; no tag told
T1 sequence (A0A6H0XHW2 80-410): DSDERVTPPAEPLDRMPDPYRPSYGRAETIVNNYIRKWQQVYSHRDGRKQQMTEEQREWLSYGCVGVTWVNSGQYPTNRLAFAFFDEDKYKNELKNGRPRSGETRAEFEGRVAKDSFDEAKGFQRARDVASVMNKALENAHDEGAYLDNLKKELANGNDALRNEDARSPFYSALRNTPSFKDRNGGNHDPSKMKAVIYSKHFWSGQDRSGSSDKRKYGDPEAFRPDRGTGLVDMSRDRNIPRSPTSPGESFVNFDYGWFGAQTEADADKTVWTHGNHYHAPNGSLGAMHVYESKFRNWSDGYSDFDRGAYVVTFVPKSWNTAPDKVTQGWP
Description: hydroxamate assay ([…] nm), Lineweaver-Burk plot. In kind it is biochemical. As to conditions: CBZ-Gln-Gly 5 to 30 mmol/l; pH 6.0; 37 °C; co-substrate hydroxylamine 100 mM, glutathione 10 mM; unit as printed (presumably μmol/ml).

Molecules are shown by their SMILES. Where a SMILES comes first, the peptide text is derived from it. The star is where a group is joined. Cbz = O=C(OCc1ccccc1)*

Turning to `NC(=O)CC[C@H](NC(=O)OCc1ccccc1)C(=O)NCC(=O)O` [CBZ-Gln-Gly] (Cbz-Gln-Gly-OH), the Km came to 16.93 μM/ml.

The values are drawn from publication PMC9728238, “Heterologous Expression of Recombinant Transglutaminase in Bacillus subtilis SCK6 with Optimized Signal Peptide and Codon, and Its Impact on Gelatin Properties” (Journal of Microbiology and Biotechnology, 2020).
